Measurements as given in US9938281B2 (Merck Sharp & Dohme Corp., priority 2012, dated 2018).

Experiments:
[1] = molecular target: T1, PI3K-delta (Homo sapiens, UniProt O00329); test: HTRF PI3K biochemical assay, delta isoform; details: form screened (neutral or TFA salt) given, read-out: PI3Kdelta IC50
T1 construct: purchased Upstate; Millipore 14-604

[2] = molecular target: T2, PI3K-alpha (Homo sapiens, UniProt P42336); test: HTRF PI3K biochemical assay, alpha isoform; details: ratio PI3K-alpha IC50 value / PI3K-delta IC50 value
T2 construct: purchased Upstate; Millipore 14-602
T2 sequence (P42336 whole entry, canonical isoform): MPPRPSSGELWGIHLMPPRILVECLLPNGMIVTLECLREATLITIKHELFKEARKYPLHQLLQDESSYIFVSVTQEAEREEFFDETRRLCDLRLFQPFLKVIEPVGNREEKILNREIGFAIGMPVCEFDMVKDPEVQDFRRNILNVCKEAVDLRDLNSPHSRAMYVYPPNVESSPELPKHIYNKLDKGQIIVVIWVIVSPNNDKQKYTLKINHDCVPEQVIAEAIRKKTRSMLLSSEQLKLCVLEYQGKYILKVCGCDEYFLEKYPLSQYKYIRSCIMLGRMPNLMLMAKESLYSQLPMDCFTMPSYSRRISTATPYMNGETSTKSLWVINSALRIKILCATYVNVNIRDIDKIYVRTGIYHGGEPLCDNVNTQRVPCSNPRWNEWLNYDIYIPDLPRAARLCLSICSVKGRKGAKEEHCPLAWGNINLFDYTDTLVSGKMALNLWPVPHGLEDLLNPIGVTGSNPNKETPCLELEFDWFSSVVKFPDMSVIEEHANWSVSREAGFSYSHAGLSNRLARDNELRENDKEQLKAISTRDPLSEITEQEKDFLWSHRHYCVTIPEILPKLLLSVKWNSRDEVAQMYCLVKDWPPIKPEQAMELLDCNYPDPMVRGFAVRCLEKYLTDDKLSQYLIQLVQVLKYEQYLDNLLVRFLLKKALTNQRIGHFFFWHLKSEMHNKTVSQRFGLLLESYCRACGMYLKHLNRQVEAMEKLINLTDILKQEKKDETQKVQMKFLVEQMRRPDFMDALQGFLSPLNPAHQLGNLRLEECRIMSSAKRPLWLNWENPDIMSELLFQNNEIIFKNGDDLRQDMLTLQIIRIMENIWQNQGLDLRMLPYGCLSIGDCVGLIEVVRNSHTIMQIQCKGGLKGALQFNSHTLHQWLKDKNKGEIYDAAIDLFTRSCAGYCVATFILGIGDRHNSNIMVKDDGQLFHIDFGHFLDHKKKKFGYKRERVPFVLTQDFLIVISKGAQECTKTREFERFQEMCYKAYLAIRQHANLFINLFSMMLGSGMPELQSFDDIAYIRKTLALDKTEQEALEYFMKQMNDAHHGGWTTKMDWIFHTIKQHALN
T2 sequence (P27986 whole entry partner, canonical isoform): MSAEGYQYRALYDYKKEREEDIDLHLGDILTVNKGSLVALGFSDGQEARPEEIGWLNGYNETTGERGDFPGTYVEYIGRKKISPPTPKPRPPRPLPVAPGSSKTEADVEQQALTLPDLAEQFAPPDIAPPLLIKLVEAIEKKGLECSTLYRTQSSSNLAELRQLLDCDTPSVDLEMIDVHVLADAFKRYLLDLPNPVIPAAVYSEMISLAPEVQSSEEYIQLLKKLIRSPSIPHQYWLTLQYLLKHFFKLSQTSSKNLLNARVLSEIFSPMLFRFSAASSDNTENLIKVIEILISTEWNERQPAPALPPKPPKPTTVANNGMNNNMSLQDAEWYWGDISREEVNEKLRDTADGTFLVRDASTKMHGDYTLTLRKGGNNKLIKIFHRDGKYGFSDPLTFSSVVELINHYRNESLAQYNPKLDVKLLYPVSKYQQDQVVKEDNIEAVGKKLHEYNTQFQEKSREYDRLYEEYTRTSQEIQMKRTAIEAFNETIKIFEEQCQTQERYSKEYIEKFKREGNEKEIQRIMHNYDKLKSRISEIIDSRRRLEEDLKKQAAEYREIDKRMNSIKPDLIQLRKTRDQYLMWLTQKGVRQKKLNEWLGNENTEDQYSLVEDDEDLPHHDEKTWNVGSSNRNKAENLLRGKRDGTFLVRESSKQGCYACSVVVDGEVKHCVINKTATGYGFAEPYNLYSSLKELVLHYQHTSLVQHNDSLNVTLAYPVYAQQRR

T1 sequence (O00329 whole entry, canonical isoform): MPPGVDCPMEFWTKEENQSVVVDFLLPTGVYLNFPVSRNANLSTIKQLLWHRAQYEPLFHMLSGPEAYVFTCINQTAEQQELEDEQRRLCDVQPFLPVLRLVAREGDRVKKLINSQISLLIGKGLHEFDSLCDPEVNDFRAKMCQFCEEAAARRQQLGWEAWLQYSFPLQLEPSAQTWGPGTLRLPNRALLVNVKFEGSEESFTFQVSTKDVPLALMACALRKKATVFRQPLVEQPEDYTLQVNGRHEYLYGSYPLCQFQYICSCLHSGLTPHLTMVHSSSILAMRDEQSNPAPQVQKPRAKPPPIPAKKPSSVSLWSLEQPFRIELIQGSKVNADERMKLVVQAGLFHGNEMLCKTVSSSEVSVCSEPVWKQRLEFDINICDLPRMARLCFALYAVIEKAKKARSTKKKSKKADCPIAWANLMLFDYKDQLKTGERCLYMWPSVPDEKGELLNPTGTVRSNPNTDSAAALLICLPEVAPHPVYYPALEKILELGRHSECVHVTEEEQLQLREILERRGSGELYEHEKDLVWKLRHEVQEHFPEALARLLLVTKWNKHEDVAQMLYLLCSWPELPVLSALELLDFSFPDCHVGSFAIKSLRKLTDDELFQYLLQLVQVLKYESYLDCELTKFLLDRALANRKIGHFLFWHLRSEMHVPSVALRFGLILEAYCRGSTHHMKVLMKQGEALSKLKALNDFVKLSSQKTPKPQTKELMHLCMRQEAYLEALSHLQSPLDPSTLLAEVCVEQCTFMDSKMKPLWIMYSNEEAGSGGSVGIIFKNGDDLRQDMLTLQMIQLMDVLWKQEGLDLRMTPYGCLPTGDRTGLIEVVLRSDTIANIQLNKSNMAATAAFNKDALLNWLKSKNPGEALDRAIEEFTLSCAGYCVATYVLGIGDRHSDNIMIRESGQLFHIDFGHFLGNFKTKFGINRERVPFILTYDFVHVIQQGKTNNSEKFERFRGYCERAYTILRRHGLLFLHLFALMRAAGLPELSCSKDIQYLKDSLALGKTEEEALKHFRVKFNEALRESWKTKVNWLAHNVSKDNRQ
T1 sequence (P27986 whole entry partner, canonical isoform): as the sequence (P27986 whole entry partner, canonical isoform) above

Row | SMILES | IC50 [1] | Selectivity versus PI3Kalpha [2]
1 | CCC1CN(C(=O)C2CC2)CC1Nc1ncnc2c1nc(-c1cnc(C)nc1)n2CC (single isomer, unassigned) [Compound 3-20, N-[(3R,4S or 3S,4R)-1-(cyclopropylcarbonyl)-4-ethylpyrrolidin-3-yl]-9-ethyl-8-(2-methylpyrimidin-5-yl)-9H-purin-6-amine] | 3.5 nM | >10
2 | CCn1c(-c2cnc(C)nc2)nc2c(NC3CN(C(=O)C4CC4)CC3F)ncnc21 (single isomer, unassigned) [Compound 3-21, N-[(3R,4R or 3S,4S)-1-(cyclopropylcarbonyl)-4-fluoropyrrolidin-3-yl]-9-ethyl-8-(2-methylpyrimidin-5-yl)-9H-purin-6-amine] | 3.4 nM | >10
3 | CCn1c(-c2cnc(C)nc2)nc2c(NC3CCCC(NC(=O)c4cocn4)C3)ncnc21 (single isomer, unassigned) [Compound 5-8, N-(1S,3S or 1R,3R)-(3-{[9-ethyl-8-(2-methylpyrimidin-5-yl)-9H-purin-6-yl]amino}cyclohexyl)-1,3-oxazole-4-carboxamide] | 12 nM | >10
4 | CCn1c(C(F)F)nc2c(N[C@H]3CCN(C(=O)C4CC45CCCC5)C3)ncnc21 (single isomer, unassigned) [Compound 7-20, (S or R)-8-(difluoromethyl)-9-ethyl-N-[(3S)-1-(spiro[2.4]hept-1-ylcarbonyl)pyrrolidin-3-yl]-9H-purin-6-amine] | 710 nM | >10
5 | CCn1c(C(F)F)nc2c(N[C@H]3CCN(C(=O)C4CC45CCCC5)C3)ncnc21 (single isomer, unassigned) [Compound 7-21, (S or R)-8-(difluoromethyl)-9-ethyl-N-[(3S)-1-(spiro[2.4]hept-1-ylcarbonyl)pyrrolidin-3-yl]-9H-purin-6-amine] | 2.4 nM | >10
6 | CCn1c(-c2cnc(C)nc2)nc2c(NC3CCC(=O)N(CC4CC4)C3)ncnc21 (single isomer, unassigned) [Compound 14-6, 5(S or R)-1-(cyclopropylmethyl)-5-{[9-ethyl-8-(2-methylpyrimidin-5-yl)-9H-purin-6-yl]amino}piperidin-2-one] | 4.3 nM | >10
7 | CCn1c(-c2cnc(C)nc2)nc2c(NC3CCCC(=O)N(CC4CC4)C3)ncnc21 (single isomer, unassigned) [Compound 14-7, (R or S)-1-(cyclopropylmethyl)-6-{[9-ethyl-8-(2-methylpyrimidin-5-yl)-9H-purin-6-yl]amino}azepan-2-one] | 13 nM | >10
8 | CCn1c(-c2cnc(C)nc2)nc2c(NC3CCN(C(=O)c4cnco4)C3)ncnc21 (stereo in doubt) [Compound 2-76, (R)-(3-((9-ethyl-8-(2-methylpyrimidin-5-yl)-9H-purin-6-yl)amino)pyrrolidin-1-yl)(oxazol-5-yl)methanone] | 3.1 nM | >10
9 | CCn1ncc(-c2nc3c(N[C@@H]4CCN(C(=O)OC(C)(C)C)C4)ncnc3n2C)c1C [Compound 1-1, tert-butyl (3R)-3-{[8-(1-ethyl-5-methyl-1H-pyrazol-4-yl)-9-methyl-9H-purin-6-yl]amino}pyrrolidine-1-carboxylate] | 15 nM | >10
10 | CCn1ncc(-c2nc3c(N[C@H]4CCN(C(=O)OC(C)(C)C)C4)ncnc3n2C)c1C [Compound 1-2, tert-butyl (3S)-3-{[8-(1-ethyl-5-methyl-1H-pyrazol-4-yl)-9-methyl-9H-purin-6-yl]amino}pyrrolidine-1-carboxylate] | 1.8 nM | >10
11 | CCn1ncc(-c2nc3c(N(C)[C@H]4CCN(C(=O)OC(C)(C)C)C4)ncnc3n2C)c1C [Compound 1-3, (S)-tert-butyl 3-((8-(1-ethyl-5-methyl-1H-pyrazol-4-yl)-9-methyl-9H-purin-6-yl)(methyl)amino)pyrrolidine-1-carboxylate] | 98 nM | >10
12 | CCn1c(-c2cnc(OC)c(C)c2)nc2c(N(C)[C@H]3CCN(C(=O)OC(C)(C)C)C3)ncnc21 [Compound 1-4, (S)-tert-butyl 3-((9-ethyl-8-(6-methoxy-5-methylpyridin-3-yl)-9H-purin-6-yl)(methyl)amino)pyrrolidine-1-carboxylate] | 1.7 nM | >10
13 | CCn1c(-c2cnc(OC)c(C)c2)nc2c(N[C@H]3CCN(C(=O)OC(C)(C)C)C3)ncnc21 [Compound 1-5, (S)-tert-butyl 3-((9-ethyl-8-(6-methoxy-5-methylpyridin-3-yl)-9H-purin-6-yl)amino)pyrrolidine-1-carboxylate] | < 1 nM | >10
14 | CCn1c(-c2cnc(C(C)(C)C)s2)nc2c(N[C@H]3CCN(C(=O)OC(C)(C)C)C3)ncnc21 [Compound 1-6, (S)-tert-butyl 3-((8-(2-(tert-butyl)thiazol-5-yl)-9-ethyl-9H-purin-6-yl)amino)pyrrolidine-1-carboxylate] | < 1 nM | 8
15 | CCn1c(-c2cnc(C(C)(C)C)s2)nc2c(N(C)[C@H]3CCN(C(=O)OC(C)(C)C)C3)ncnc21 [Compound 1-7, (S)-tert-butyl 3-((8-(2-(tert-butyl)thiazol-5-yl)-9-ethyl-9H-purin-6-yl)(methyl)amino)pyrrolidine-1-carboxylate] | 6.7 nM | >10
16 | COc1ncc(-c2nc3c(N[C@H]4CCN(C(=O)OC(C)(C)C)C4)ncnc3n2C)cc1C [Compound 1-8, (S)-tert-butyl 3-((8-(6-methoxy-5-methylpyridin-3-yl)-9-methyl-9H-purin-6-yl)amino)pyrrolidine-1-carboxylate] | 1.7 nM | >10
17 | Cn1c(-c2cnc(C(C)(C)C)s2)nc2c(N[C@H]3CCN(C(=O)OC(C)(C)C)C3)ncnc21 [Compound 1-9, (S)-tert-butyl 3-((8-(2-(tert-butyl)thiazol-5-yl)-9-methyl-9H-purin-6-yl)amino)pyrrolidine-1-carboxylate] | < 1 nM | >10
18 | CCn1ncc(-c2nc3c(NC4CN(C(=O)OC(C)(C)C)C4)ncnc3n2C)c1C [Compound 1-10, tert-butyl 3-((8-(1-ethyl-5-methyl-1H-pyrazol-4-yl)-9-methyl-9H-purin-6-yl)amino)azetidine-1-carboxylate] | 15 nM | >10
19 | CCn1ncc(-c2nc3c(N[C@@H]4CCCN(C(=O)OC(C)(C)C)C4)ncnc3n2C)c1C [Compound 1-11, (R)-tert-butyl 3-((8-(1-ethyl-5-methyl-1H-pyrazol-4-yl)-9-methyl-9H-purin-6-yl)amino)piperidine-1-carboxylate] | 250 nM | >10
20 | CCn1ncc(-c2nc3c(N[C@H]4CCCN(C(=O)OC(C)(C)C)C4)ncnc3n2C)c1C [Compound 1-12, (S)-tert-butyl 3-((8-(1-ethyl-5-methyl-1H-pyrazol-4-yl)-9-methyl-9H-purin-6-yl)amino)piperidine-1-carboxylate] | 19 nM | >10
21 | CCn1c(-c2cnc(C)nc2)nc2c(N[C@H]3CCN(C(=O)OC(C)(C)C)C3)ncnc21 [Compound 1-13, (S)-tert-butyl 3-((9-ethyl-8-(2-methylpyrimidin-5-yl)-9H-purin-6-yl)amino)pyrrolidine-1-carboxylate] | < 1 nM | >10
22 | CCn1ncc(-c2nc3c(N[C@H]4CCN(C(=O)OC(C)(C)C)C4)ncnc3n2CC)c1C [Compound 1-14, tert-butyl (3S)-3-{[9-ethyl-8-(1-ethyl-5-methyl-1H-pyrazol-4-yl)-9H-purin-6-yl]amino}pyrrolidine-1-carboxylate] | 1.1 nM | >10
23 | CCn1c(-c2cnc(C)nc2)nc2c(N[C@H]3CCCN(C(=O)OC(C)(C)C)C3)ncnc21 [Compound 1-16, tert-butyl (3S)-3-{[9-ethyl-8-(2-methylpyrimidin-5-yl)-9H-purin-6-yl]amino}piperidine-1-carboxylate] | 49 nM | >10
24 | CCn1c(-c2cnc(C)nc2)nc2c(N[C@H]3C[C@H](C(=O)OC)N(C(=O)OC(C)(C)C)C3)ncnc21 [Compound 1-17, 1-tert-butyl 2-methyl (2R,4S)-4-{[9-ethyl-8-(2-methylpyrimidin-5-yl)-9H-purin-6-yl]amino}pyrrolidine-1,2-dicarboxylate] | 8.8 nM | >10
25 | CCn1c(-c2cnc(C)nc2)nc2c(N[C@H]3C[C@H](C(=O)O)N(C(=O)OC(C)(C)C)C3)ncnc21 [Compound 1-18, (4S)-1-(tert-butoxycarbonyl)-4-{[9-ethyl-8-(2-methylpyrimidin-5-yl)-9H-purin-6-yl]amino}-D-proline] | 2 nM | >10
26 | CCn1c(-c2cnc(C)nc2)nc2c(N[C@H]3C[C@@H](C(=O)OC)N(C(=O)OC(C)(C)C)C3)ncnc21 [Compound 1-19, 1-tert-butyl 2-methyl (2S,4S)-4-{[9-ethyl-8-(2-methylpyrimidin-5-yl)-9H-purin-6-yl]amino}pyrrolidine-1,2-dicarboxylate] | 69 nM | >10
27 | CCn1c(-c2cnc(C)nc2)nc2c(N[C@H]3C[C@H](CO)N(C(=O)OC(C)(C)C)C3)ncnc21 [Compound 1-20, tert-butyl (2R,4S)-4-{[9-ethyl-8-(2-methylpyrimidin-5-yl)-9H-purin-6-yl]amino}-2-(hydroxymethyl)pyrrolidine-1-carboxylate] | 12 nM | >10
28 | CCn1c(-c2ccc(C(F)(F)F)nc2)nc2c(N[C@H]3CCN(C(=O)OC(C)(C)C)C3)ncnc21 [Compound 1-22, tert-butyl (3S)-3-({9-ethyl-8-[6-(trifluoromethyl)pyridin-3-yl]-9H-purin-6-yl}amino)pyrrolidine-1-carboxylate] | < 1 nM | >10
